Like-named read-outs stand apart in the source and are kept apart here.
Columns and labels:
[1] = calculated air concentrations of cyclohexanol from cigarette smoke; settings: nine puffs at 35 ml, 315 ml
Method: Therefore, 0.050 would be in 315 ml, which would be expected from nine puffs at 35 ml per puff. […] However, this exposure in contrast to the eight-hour work day assumption of the TLV is only during the actual puffing time for the smoker.

human = settings: cited from earlier work
rabbits = settings: TLV documentation (1943); cited from earlier work
mice = settings: cited from earlier work
[2] = tested on: radioactivity ([14C]NNN) in bronchial epithelium; assay: cyclohexanol vapor inhalation, [14C]NNN autoradiography (Examples 2 and 3); type: in vivo, C57BL/6J mouse; settings: vapor 5 min
Method: The mouse was kept in the closed beaker for about five minutes as the bottom of the beaker was maintained at 50° C. in a water bath. […] Handbook of Chemistry and Physics (1979), at D-203 to D-217.
One hour later, the mouse was anesthetized lightly by ether and frozen by immersion in dry ice/hexane. […] Control experiments were conducted for comparison purposes and radioactivity was detected in the respiratory epithelium in the controls.
Example 2 was duplicated, except that the mouse was kept in the closed beaker for five minutes as the bottom of the beaker was maintained at 26° C. in a water bath. […] After injection as in Example 2, the mouse was processed in the same manner as in Example 2.

[3] = Table V; cited from earlier work
[4] = tested on: smoker exposure versus effect level in animals; assay: daily body burden and exposure versus effect level
[5] = tested on: localization of nitrosamines (NNN, NNK) in tissues; assay: nitrosamine delocalization / blocking, general statements; settings: in vivo
[6] = transfer of cyclohexanol into smoke, standard smoking machine (Example 6)
Method: Cyclohexanol appears to meet these criteria.
Cigarettes were hand-laced with cyclohexanol, that is by evenly injecting the alcohol into the rod of a manufactured cigarette using a machine-controlled syringe. […] Sixty cigarettes were smoked on a standard smoking machine using Cambridge filter pads to collect the particulate phase, where most of the material is carried. A transfer efficiency of ten percent was established with this test cigarette. […]. The load was 620 micrograms per cigarette, and the transfer efficiency was ten percent. […].

[7] = transfer of cyclohexanol to cigarette smoke, gas chromatography (Example 7)
Method: This work was performed to determine the amount of cyclohexanol transferred to smoke from cigarettes loaded with the chemical. Duplicate runs were carried out. In each run, smoke from twenty cigarettes, twelve puffs/cigarette, was collected. Cyclohexanol was analyzed in both the particulate (filter extract) and non-particulate phases of cigarette smoke by gas chromatography. A standard curve was made and analyzed simultaneously with the samples.
The total volume of smoke from 20 cigarettes=12×33.3×20=7992 ml [formula]
These calculations are based on the following information:
Using conventional manufacturing practices, 1,000 pounds of dressed rag tobacco yields 510,000 finished cigarettes. These ratios and yields are to be strictly monitored. The ratio of top dressing to rag tobacco is based on the published TLV's for the active ingredient of this dressing--cyclohexanol.

tumor formation = settings: cited from earlier work
F-344 rat esophagus = F-344 rat esophagus vs other tissues; cited from earlier work
[8] = tested on: localization of radioactivity ([14C]NNN) in bronchial epithelium; assay: effect of substances on localization of radioactivity one hour after intravenous [14C]NNN (Table VI); type: in vivo, mice; settings: one hour after intravenous [14C]NNN; solids at ambient temperature
Excerpt: Table VI below lists the compounds tested for their effect on the localization of radioactivity in bronchial epithelium one hour after intravenous administration of [^14 C]NNN. Unless indicated otherwise, the compounds were parenterally administered acutely at various times prior to [^14 C]NNN. In many cases only one mouse was studied for each compound. […].
Effect of substances on the localization of radioactivity in bronchial epithelium of mice one hour after intravenously receiving [^14 C] nitrosonornicotine.
For all the remaining compounds the general protocol was to administer the potential blocker some minutes prior to administration of the [^14 C]NNN. Potential blockers were given orally, intraperitoneally or by inhalation, and the [^14 C]NNN was given intravenously.

[9] = tested on: nitrosamine ([14C]NNN) localization; assay: imidazole intraperitoneal, [14C]NNN autoradiography (Examples 4 and 5); type: in vivo, male C57BL/6J mouse; settings: ip
Method: An adult male C57BL/6J mouse was injected intraperitoneally with 0.02 ml/g body weight of a solution of imidazole in water. The imidazole solution concentration was such that 0.05 g of imidazole was delivered per kg of body weight. […] See Example 1.
Example 4 was duplicated except that the adult mouse was injected intraperitoneally with 0.02 ml/g body weight of a solution of imidazole in water, wherein the solution concentration was such that 0.25 g of imidazole was delivered per kg of body weight.

Question: Which results are given for `OC1CCCCC1` [Cyclohexanol]?
Answer: instantaneous concentration to a smoker as % of TLV [1]: about 75 % of the TLV value; TLV (human; Example 7 summary): 200; TLV (human; Table of smokestream concentrations): 200.0 µg/L; TLV (human; Table of smokestream concentrations, listed as cyclohexanol): 200 µg/L; OSHA safe air level (human; eight continuous hours): two hundred; Toxicity: OSHA time weighted average limit (human; eight hour work day and forty hour work week): 200 mg/m^3; slight degenerative changes, air level (rabbits): about 600 mg per cubic meter; acute intravenous toxic dose (mice): 270 mg/kg; radioactivity in bronchial epithelium ([2]; 26° C., 0.001% in air): No radioactivity was detected; radioactivity in bronchial epithelium ([2]; 50° C., 0.01% in air): No radioactivity was detected; Boiling Point [3]: 161 °C; body burden from a pack of cigarettes ([4]; all cyclohexanol in smoke absorbed, 20 cigarettes): 1.0 mg; daily burden ([4]; one pack a day smoker): 0.014 mg/kg; mouse iv toxic dose versus human exposure ([4]; one pack a day smoker): 20,000 times; difference in exposure versus effect level in animals ([4]; rats, pharmacological changes (enzyme or neurotoxicity)): ~20,000 fold; effectiveness against NNN or NNK [5]: effective against NNN; efficacy in the laboratory [5]: highly effective in the laboratory; smoked concentration as % of TLV ([6]; 620 micrograms per cigarette): 99 % of cyclohexanol TLV; smoked concentration as % of TLV ([6]; 8750 micrograms loaded per cigarette): 1389 % of TLV; % of TLV ([7]; Example 7 summary): 59.5%; Percent of TLV ([7]; Fully Smoked Cigarette): 59.5%; Percent TLV ([7]; Instant ("Puff") Exposure): 4.9%

Question: Which “carcinogenicity / tumor induction” value (tumor formation; rat, in vivo) does the source give for `CN(CCCC(=O)c1cccnc1)N=O` [NNK] here?
Answer: powerful environmental carcinogens

Question: With `O=NN1CCCC1c1cccnc1` (centres unmarked) [NNN, N'-Nitrosonoronicotine] as the compound, how does the “number of sites of tumor formation” value (tumor formation; nasal cavity, salivary duct, esophagus, bronchial epithelium, liver) read?
Answer: five

Question: What about the “hydroxylation at the a-carbon of NNN adjacent to the pyridine ring” value (F-344 rat esophagus) of the same compound?
Answer: preferentially catalyzes hydroxylation

Question: For `c1c[nH]cn1` [imidazole], which “decrease in the localization of radioactivity in bronchial epithelium” value [8] is on record?
Answer: significant decrease

Question: And the nitrosamine delocalization ([9]; 0.05 g/kg)?
Answer: Significant nitrosamine delocalization

Question: What about the nitrosamine delocalization ([9]; 0.25 g/kg) of the same compound?
Answer: significant delocalization of nitrosamine

Question: And the “nitrosamine delocalization / inhibition of nitrosamine localization” value [5]?
Answer: found to delocalize nitrosamines
